We go through 7 molecules from publication PMC7957578, “N-(1,3,4-Oxadiazol-2-yl)Benzamides as Antibacterial Agents against Neisseria gonorrhoeae” (International Journal of Molecular Sciences, 2021).

≈ marks a conversion by molar mass, not a printed value. Like-named read-outs stand apart in the source and are kept apart here.

In test [1] the test system is N. gonorrhoeae 194. Kind of test: MIC/MBC against N. gonorrhoeae clinical isolate 194. It counts as cell-based. The note with it: Neisseria gonorrhoeae. On the procedure:
(§1) Briefly, bacteria were grown overnight on chocolate agar II at 37° C in the presence of 5% CO2. Afterwards, a bacterial suspension equivalent to 1.0 McFarland standard was prepared and diluted in brucella broth supplemented with yeast extract, neopeptone, hematin, pyridoxal, and NAD. Test agents were added in the first row of the 96-well plates and serially diluted along the plates. Plates were then incubated at 37° C in the presence of 5% CO2 for 24 h. […] Plates were then incubated at 37 ° C in the presence of 5% CO2 for 24 h. The MBC was categorized as the lowest concentration that reduced bacterial growth by 99.9% [45, 46, 47].

The test system of test [2] is N. gonorrhoeae strain 181. Kind of test: MIC by broth microdilution against N. gonorrhoeae strain 181. The note with it: Neisseria gonorrhoeae; N. gonorrhoeae strain 181; read-out: MIC. The format is cell-based, Neisseria gonorrhoeae. On the procedure:
as §1

For test [3], the system named is N. gonorrhoeae WHO L. Description: MIC/MBC against N. gonorrhoeae WHO L reference strain. The format is cell-based. The note with it: Neisseria gonorrhoeae. On the procedure:
as §1

The subject of test [4] is N. gonorrhoeae 165. Kind of test: MIC/MBC against N. gonorrhoeae clinical isolate 165. The format is cell-based. The note with it: Neisseria gonorrhoeae. On the procedure: as §1
Test [5] has as its system N. gonorrhoeae 200. Description: MIC/MBC against N. gonorrhoeae clinical isolate 200. It counts as cell-based. The note with it: Neisseria gonorrhoeae. On the procedure:
as §1

Test [6] deals with N. gonorrhoeae 197. Kind of test: MIC/MBC against N. gonorrhoeae clinical isolate 197. The format is cell-based. The note with it: Neisseria gonorrhoeae. On the procedure:
as §1

Test [7] concerns N. gonorrhoeae 166. Kind of test: MIC/MBC against N. gonorrhoeae clinical isolate 166. The format is cell-based. As to conditions: Neisseria gonorrhoeae. On the procedure: as §1
Test [8] relates to E. coli BW25113 (wild-type strain). Kind of test: MIC/MBC (CLSI broth microdilution) against E. coli BW25113 wild type. It counts as cell-based, Escherichia coli. The note with it: Escherichia coli. On the procedure:
(§2) The minimum inhibitory concentrations (MICs) of the tested compounds and control drugs, linezolid, vancomycin, and gentamicin, were determined using the broth microdilution method according to the guidelines outlined by the Clinical and Laboratory Standards Institute (CLSI) against clinically relevant bacterial (Staphylococcus aureus, MRSA, Escherichia coli, Enterococcus faecalis and Enterococcus faecium strains. S. aureus, MRSA, E. coli, Enterococcus faecalis and Enterococcus faecium were grown aerobically overnight on tryptone soy agar (TSA) plates at 37° C. Afterwards, a bacterial solution equivalent to 0.5 McFarland standard was prepared and diluted in cation-adjusted Mueller–Hinton broth (CAMHB) (for S. aureus, MRSA, and E. coli) to achieve a bacterial concentration of about 5 × 10^5 CFU/mL. Enterococcus faecalis and Enterococcus faecium 0.5 McFarland standard solution was diluted in tryptone soy broth (TSB) to achieve a bacterial concentration of about 5 × 10^5 CFU/mL. Compounds and control drugs were added in the first row of 96-well plates and serially diluted with the corresponding media containing bacteria. Plates were then incubated as previously described. […] The minimum bactericidal concentration (MBC) was tested by spotting 4 µL from wells with no growth onto TSA plates. Plates were incubated at 37 ° C for at least 18 h before recording the MBC. The MBC was categorized as the lowest concentration that reduced bacterial growth by 99.9% [45, 46, 47].
On the technique in general: Dilution methods test growth across graded concentrations, often in twofold steps.

The test system of test [9] is E. coli JW55031 (TolC Mutant). Kind of test: MIC/MBC (CLSI broth microdilution) against E. coli TolC mutant. It counts as cell-based. As to conditions: Escherichia coli. On the procedure:
as §2

Test [10] relates to VRE. faecalis ATCC 51299. Kind of test: MIC/MBC (CLSI broth microdilution) against VRE faecalis ATCC 51299. It counts as cell-based. As to conditions: Enterococcus. On the procedure:
as §2

Test [11] concerns L. monocytogenes ATCC 19115. Description: MIC/MBC (CLSI broth microdilution) against L. monocytogenes ATCC 19115. It counts as cell-based. As to conditions: Listeria monocytogenes, ATCC19115.
Test [12] relates to MRSA USA300. Description: MIC/MBC (CLSI broth microdilution) against MRSA USA300. It counts as cell-based, methicillin-resistant Staphylococcus aureus. The note with it: Staphylococcus aureus. On the procedure: as §2
For test [13], the system named is E. faecalis ATCC 29212. Kind of test: MIC/MBC (CLSI broth microdilution) against E. faecalis ATCC 29212. The format is cell-based. As to conditions: Enterococcus faecalis, ATCC29212. On the procedure:
as §2

Test [14] has as its system S. aureus ATCC 25923. Description: MIC/MBC (CLSI broth microdilution) against S. aureus ATCC 25923. It counts as cell-based. As to conditions: Staphylococcus aureus, ATCC25923. On the procedure: as §2
In test [15] the test system is VRE. faecalisATCC 51575. Kind of test: MIC/MBC (CLSI broth microdilution) against VRE faecalis ATCC 51575. It counts as cell-based. The note with it: Enterococcus. On the procedure: as §2
Test [16] deals with VRE. faecium ATCC 700221. Kind of test: MIC/MBC (CLSI broth microdilution) against VRE faecium ATCC 700221. It counts as cell-based. As to conditions: Enterococcus. On the procedure: as §2
Setting [17] is: E. coli BW25113 wild-type strain, read-out: MBC.
[18] abbreviates: E. coli BW25113 wild-type strain, read-out: MIC.

In the case of `CN(C)[C@@H]1C(O)=C(C(N)=O)C(=O)[C@@]2(O)C(O)=C3C(=O)c4c(O)cccc4[C@@](C)(O)[C@H]3C[C@@H]12` [Tetracycline, tetracycline, reference compound], the minimal bactericidal concentration (MBC) (as a rule, the lowest tested concentration that kills the bacteria rather than only halting them) in test [1] was found to be 4 µg/mL (≈ 9 µM); in test [3], 2 µg/mL (≈ 4.5 µM); in test [4] it was 8 µg/mL (≈ 18 µM); in [5], 8 µg/mL (≈ 18 µM); in test [6], 4 µg/mL (≈ 9 µM); in test [7], 8 µg/mL (≈ 18 µM). Further, the MIC – broadly, the lowest concentration found to suppress growth – is 1 µg/mL (≈ 2.25 µM) in test [1]; 2 µg/mL (≈ 4.5 µM) in test [2]; 0.5 µg/mL (≈ 1.13 µM) in test [3]; 4 µg/mL (≈ 9 µM) in test [4]; 2 µg/mL (≈ 4.5 µM) in test [5]; 2 µg/mL (≈ 4.5 µM) in test [6]. Besides, the MIC in [7] was 2 µg/mL (≈ 4.5 µM).

As for `O=C(Nc1nnc(-c2cccs2)o1)c1ccc(S(=O)(=O)C(F)(F)F)cc1` [Compound 6], in test [2], the MIC turned out to be 0.5 µg/mL (≈ 1.24 µM).

Regarding `O=C(Nc1nnc(-c2cccs2)o1)c1ccc(S(F)(F)(F)(F)F)cc1` [Compound 13], in test [2], the MIC was found to be 0.06 µg/mL (≈ 0.151 µM).

Consider `CN[C@H](CC(C)C)C(=O)N[C@H]1C(=O)N[C@@H](CC(N)=O)C(=O)N[C@H]2C(=O)N[C@H]3C(=O)N[C@H](C(=O)N[C@H](C(=O)O)c4cc(O)cc(O)c4-c4cc3ccc4O)[C@H](O)c3ccc(c(Cl)c3)Oc3cc2cc(c3O[C@@H]2O[C@H](CO)[C@@H](O)[C@H](O)[C@H]2O[C@H]2C[C@](C)(N)[C@H](O)[C@H](C)O2)Oc2ccc(cc2Cl)[C@H]1O` [Vancomycin, vancomycin, reference compound], for which the minimum bactericidal concentration (MBC) in [8] (BW25113) is over 64 µg/mL; in [9] it was over 64 µg/mL; in [10], over 64 µg/mL; in test [11], 1 µg/mL (≈ 0.69 µM); in test [12], 2 µg/mL (≈ 1.38 µM); in [13], 1 µg/mL (≈ 0.69 µM). Also, the values for the minimum bactericidal concentration (MBC) in [14], in [15] and in test [16] were 1 µg/mL (≈ 0.69 µM), over 64 µg/mL and 32 µg/mL (≈ 22.1 µM), respectively. Further, the minimal inhibitory concentration (MIC) in [8] (BW25113) is over 64 µg/mL; in [9], over 64 µg/mL; in test [10], over 64 µg/mL; in test [11], 1 µg/mL (≈ 0.69 µM); in test [12] it was 1 µg/mL (≈ 0.69 µM); in [13] it was 1 µg/mL (≈ 0.69 µM). The figures for the minimal inhibitory concentration (MIC) in [14], in [15] and in [16] were 1 µg/mL (≈ 0.69 µM), over 64 µg/mL and 32 µg/mL (≈ 22.1 µM), respectively.

`O=C(Nc1nnc(-c2cccs2)o1)c1ccc(SC(F)(F)F)cc1` [Compound 12]: in test [2], the MIC was 0.06 µg/mL (≈ 0.162 µM).

Turning to `CC(=O)NC[C@H]1CN(c2ccc(N3CCOCC3)c(F)c2)C(=O)O1` [Linezolid, linezolid, reference compound], the MBC is over 64 µg/mL in [8] (setting [17]); over 64 µg/mL in [9]; 32 µg/mL (≈ 94.9 µM) in test [10] (VRE faecalis ATCC 51299, read-out: MBC); 64 µg/mL (≈ 190 µM) in test [11] (L. monocytogenes ATCC 19115, read-out: MBC); 16 µg/mL (≈ 47.4 µM) in test [12] (MRSA USA300, read-out: MBC); 64 µg/mL (≈ 190 µM) in test [13] (E. faecalis ATCC 29212, read-out: MBC). Moreover, the MBC in test [14] (S. aureus ATCC 25923, read-out: MBC) turned out to be 64 µg/mL (≈ 190 µM); in test [15] (VRE faecalis ATCC 51575, read-out: MBC), 64 µg/mL (≈ 190 µM); in [16] (VRE faecium ATCC 700221, read-out: MBC) it was 64 µg/mL (≈ 190 µM). The MIC in test [8] (setting [18]) is over 64 µg/mL; in test [9] it was 8 µg/mL (≈ 23.7 µM); in [10] (VRE faecalis ATCC 51299, read-out: MIC), 1 µg/mL (≈ 2.96 µM); in test [11] (L. monocytogenes ATCC 19115, read-out: MIC), 2 µg/mL (≈ 5.93 µM); in [12] (MRSA USA300, read-out: MIC), 1 µg/mL (≈ 2.96 µM); in test [13] (E. faecalis ATCC 29212, read-out: MIC), 2 µg/mL (≈ 5.93 µM). For the same molecule, the minimum inhibitory concentration (MIC) in [14] (S. aureus ATCC 25923, read-out: MIC) was 2 µg/mL (≈ 5.93 µM); in test [15] (VRE faecalis ATCC 51575, read-out: MIC), 2 µg/mL (≈ 5.93 µM); in [16] (VRE faecium ATCC 700221, read-out: MIC) it was 2 µg/mL (≈ 5.93 µM).

Take `CNC(C)C1CCC(N)C(OC2C(N)CC(N)C(OC3OCC(C)(O)C(NC)C3O)C2O)O1` (centres unmarked) [Gentamicin, gentamicin, reference compound]: the MBC in test [8] (setting [17]) and in test [9] was 0.25 µg/mL (≈ 0.523 µM) throughout. For the same molecule, the minimum inhibitory concentration (MIC) in test [8] (setting [18]) and in test [9] was 0.25 µg/mL (≈ 0.523 µM) throughout.
